# Data: the supplement of paper PMC10920090
# Key:
# MDA-MB-231 [1] = assay: drug sensitivity score (DSS), cytotoxicity CellTox Green; higher = more cytotoxic; extreme values may be limits of the assay; conditions: 72 h
# MDA-MB-231 [2] = assay: drug sensitivity score (DSS), cell viability CellTiter-Glo; higher = more sensitive; extreme values may be limits of the assay; conditions: 72 h
# 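Wherever drug sensitivity score (DSS), cytotoxicity CellTox Green is given: DSS summarises each dose–response curve by combining IC50, EC50, maximal inhibition and efficacy across drug concentrations.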
SMILES,drug sensitivity score (MDA-MB-231 [1]; shRNA: shPPFIA1_1) [DSS],drug sensitivity score (MDA-MB-231 [1]; shRNA: shScramble) [DSS],drug sensitivity score (MDA-MB-231 [2]; shRNA: shPPFIA1_1) [DSS],drug sensitivity score (MDA-MB-231 [2]; shRNA: shScramble) [DSS]
Cc1cc(OCc2nnc(SC3CCCC3)n2-c2cccnc2)ccc1-c1ccc(S(C)(=O)=O)cc1 [NMS-873],7.6,7.4,6.8,14.7
CCN1CCN(c2ccc(Nc3cc(N(C)C(=O)Nc4c(Cl)c(OC)cc(OC)c4Cl)ncn3)cc2)CC1 [NVP-BGJ398],0,0,0,0
C[C@H](Nc1ncnc2nc[nH]c12)c1cc2cccc(Cl)c2c(=O)n1-c1ccccc1 [Duvelisib],0,3.3,3,0
O=C(c1ccc(/C=C/c2n[nH]c3ccccc23)cc1)N1CCNCC1 [KW-2449],0,0,0,0
COc1ccc(COc2cc3oc(=O)c4cc(C(C)O)ccc4c3cc2OC)cc1 (centres undefined) [Palomid-529],0,0,0,0
COCC(=O)NC/C=C/c1ccc2ncnc(Nc3ccc(Oc4ccc(C)nc4)c(C)c3)c2c1,2.2,0,0,0.3
CC(C)(C)NC(=O)[C@H]1CC[C@H]2[C@@H]3CC[C@H]4NC(=O)C=C[C@]4(C)[C@H]3CC[C@]12C [Finasteride],0,0,0,0
CN(C)C(=O)c1ccc(S(=O)(=O)c2ccc(NC(=O)[C@@](C)(O)C(F)(F)F)c(Cl)c2)cc1 [AZD7545],0,0,3.6,0
CNCc1ccc(-c2[nH]c3cc(F)cc4c3c2CCNC4=O)cc1 [Rucaparib],0,0,0,0
O=C(Nc1c[nH]nc1-c1nc2ccc(CN3CCOCC3)cc2[nH]1)NC1CC1 [AT9283],0.2,0.8,0,0.5
CC[C@]1(O)C[C@@H]2CN(CCc3c([nH]c4ccccc34)[C@@](C(=O)OC)(c3cc4c(cc3OC)N(C)[C@H]3[C@@](O)(C(=O)OC)[C@H](OC(C)=O)[C@]5(CC)C=CCN6CC[C@]43[C@@H]65)C2)C1 [Vinblastine],9,9.2,0,9.6
CO[C@H]1/C=C\C=C(/C)C(=O)NC2=CC(=O)C(NCCN(C)C)=C(C[C@@H](C)C[C@H](OC)[C@H](O)[C@@H](C)/C=C(\C)[C@@H]1OC(N)=O)C2=O [Alvespimycin],0,0.6,4.8,7.2
O=C(O)c1ccc(-c2c[nH]c3ncc(-c4ccccc4)cc23)cc1C1CCCC1,0,0,0,0
O=c1[nH]c(C2CCCN2)nc2c1oc1ccc(Cl)cc12 (centres undefined),0,0,0,0
O=C(O)CC[C@H]1CC[C@@](c2cc(F)ccc2F)(S(=O)(=O)c2ccc(Cl)cc2)CC1 [MK-0752],0,0,0,0.2
O=C(Nc1cccnc1)N1CCC(Cc2cccc(Oc3ccc(C(F)(F)F)cn3)c2)CC1 [PF-3845],4,0.3,4.3,4
COc1ncc(-c2ccc3nccc(-c4ccnnc4)c3c2)cc1NS(=O)(=O)c1ccc(F)cc1F [Omipalisib],0,0,0,10.9
CNC(=O)c1ccccc1Sc1ccc2c(/C=C/c3ccccn3)n[nH]c2c1 [Axitinib],0,0,0,0.2
N#CC1(c2ccc(NC(=O)c3cccnc3NCc3ccncc3)cc2)CCCC1 [Apatinib],0,0,0,0
CCS(=O)(=O)N1CCN(c2ccc(Nc3ncc(C(N)=O)c(NC4CC4)n3)cc2)CC1 [Cerdulatinib],0,0,0,2.9
CC(C)n1cnc2c(NCCc3ccc(O)cc3)nc(-c3csc4ccccc34)nc21 [StemRegenin 1],0.8,0.4,2.3,0.2
C=CC(=O)Nc1cccc(Nc2nc(Nc3ccc(OCCOC)cc3)ncc2F)c1 [Spebrutinib],0,0,0,0.4
COc1cc2c(Oc3ccc4[nH]c(C)cc4c3F)ncnc2cc1OCCCN1CCCC1 [Cediranib],0,0,7,7.5

SMILES,drug sensitivity score (MDA-MB-231 [1]; shRNA: shPPFIA1_1) [DSS],drug sensitivity score (MDA-MB-231 [1]; shRNA: shScramble) [DSS],drug sensitivity score (MDA-MB-231 [2]; shRNA: shPPFIA1_1) [DSS],drug sensitivity score (MDA-MB-231 [2]; shRNA: shScramble) [DSS]
O=C(c1cc(Cc2n[nH]c(=O)c3ccccc23)ccc1F)N1CCN(C(=O)C2CC2)CC1 [Olaparib],0,0,0.1,0.8
CCNC(=O)c1noc(-c2cc(C(C)C)c(O)cc2O)c1-c1ccc(CN2CCOCC2)cc1 [Luminespib],0,2,9.5,12.2
CCCCCCCCc1ccc(CCC(N)(CO)CO)cc1 [Fingolimod],6.7,6.8,7.5,8
COC[C@H](NC(=O)c1cnc(C)s1)C(=O)N[C@@H](COC)C(=O)N[C@@H](Cc1ccccc1)C(=O)[C@@]1(C)CO1 [Oprozomib],17,16.8,11.4,11.5
N#CCNC(=O)c1ccc(-c2ccnc(Nc3ccc(N4CCOCC4)cc3)n2)cc1 [Momelotinib],0,0,0,0
COc1cccc2c1C(=O)c1c(O)c3c(c(O)c1C2=O)C[C@@](O)(/C(CO)=N/NC(=O)CCCCCN1C(=O)C=CC1=O)C[C@@H]3O[C@H]1C[C@H](N)[C@H](O)[C@H](C)O1 [Aldoxorubicin],0,0,1.2,7.3
COc1cc2c(NC3CCN(C(C)C)CC3)nc(C3CCCCC3)nc2cc1OCCCN1CCCC1 [UNC0638],7,6.8,8.3,6.3
c1cn2cc(-c3ccc4cn[nH]c4c3)nc(Nc3ccc(N4CCOCC4)cc3)c2n1 [Entospletinib],10.3,0,0.9,0
CS(=O)(=O)OCCCCOS(C)(=O)=O [Busulfan],0,0,0,0.2
Nc1nc(Nc2ccc3c(c2)CC[C@@H](N2CCCC2)CC3)nn1-c1cc2c(nn1)-c1ccccc1CCC2 [BGB324],4.4,6.1,10.6,9.5
CCc1nc(-c2cccc(C)c2)c(-c2ccnc(NC(=O)c3ccccc3)c2)s1 [TAK-715],0.3,0,0,0.8
Cc1c(C(=O)Nc2ccc(N3C[C@@H](C)O[C@@H](C)C3)nc2)cccc1-c1ccc(OC(F)(F)F)cc1 [Sonidegib],0,0,1.1,2.4
CO[C@@]12[C@H](COC(N)=O)C3=C(C(=O)C(C)=C(N)C3=O)N1C[C@@H]1N[C@@H]12 [Mitomycin C],0,0,0,0
O=c1cc(N2CCOCC2)oc2c(-c3ccccc3)cccc12,0.1,2.4,1.7,0
CCc1c2c(nc3ccc(O)cc13)-c1cc3c(c(=O)n1C2)COC(=O)[C@]3(O)CC [SN-38],14.9,2,0.2,7.6
O=C1NC(=O)[C@@H](c2cn3c4c(cccc24)CCC3)[C@@H]1c1c[nH]c2ccccc12 [Tivantinib],1.7,0.5,4.8,3.8
COc1cccc(OCCCN)c1-c1cc(Nc2cnc(C#N)cn2)n[nH]1 [Prexasertib],21,6.9,13.2,29.8
CN1CC[C@H](c2c(O)cc(O)c3c(=O)cc(-c4ccccc4Cl)oc23)[C@H](O)C1 [Alvocidib],11.9,7.4,10.6,15.2
CC(O)(CS(=O)(=O)c1ccc(F)cc1)C(=O)Nc1ccc(C#N)c(C(F)(F)F)c1 (centres undefined) [Bicalutamide],0,0,0,0.2
CS(=O)(=O)CCNCc1ccc(-c2ccc3ncnc(Nc4ccc(OCc5cccc(F)c5)c(Cl)c4)c3c2)o1 [Lapatinib],0,0,0,0
O=C(/C=C/c1cccc(S(=O)(=O)Nc2ccccc2)c1)NO [Belinostat],14.9,8.1,8.7,10.2
CC(C)C[C@H](NC(=O)[C@H](Cc1ccccc1)NC(=O)c1cnccn1)B(O)O [Bortezomib],26.8,24.3,21.3,23.1
O=C(O)CSc1cc(NS(=O)(=O)c2ccc(Br)cc2)c2ccccc2c1O [UMI-77],8,18.7,3.2,10.8
